The target of assay [1] is HIV-1 RT enzyme (wild-type) (Human immunodeficiency virus type 1 group M subtype B, UniProt P04585). Kind of assay: ECL assay for inhibition of HIV reverse transcriptase (WT). Format: biochemical. Here is the method:
(§1) 100 μL reaction mixtures were initiated with a combination of primer-template substrate ([…]) and dNTPs (0.6 μM dNTPs, 1.25 μM BrdUTP). The heterodimeric nucleic acid substrate was generated by annealing the DNA primer pD500 (described in Shaw-Reid et al., J. Biol. Chem., 278: 2777-2780; obtained from Integrated DNA Technologies) to t500, a 500 nucleotide RNA template created by in vitro transcription (see Shaw-Reid et al., J. Biol. Chem., 278: 2777-2780). After 1 hour incubation at 37° C., reactions were quenched by 10 μL of 1 N NaOH. Microtiter plates were incubated for an additional 30 minutes at room temperature and then neutralized with 10 μL of 1 N HCl. A mixture of detection buffer containing ruthenylated anti-BrdU antibody and streptavidin coated magnetic beads were added to the plate and incubated at room temperature for 1.5 hours prior to quantification via electrochemiluminescence instrument.

The next assay deals with wild type HIV-1. Kind of assay: Spread assay: inhibition of acute HIV-1 infection of T-lymphoid cells (WT). Format: cell-based. As to conditions: Human immunodeficiency virus 1, T-lymphoid; wild-type strain; 10% FBS; read-out: Spread (WT) CIC95. Here is the method:
(§2) Assays for the inhibition of acute HIV-1 infection of T-lymphoid cells (alternatively referred to herein as the “spread assay”) were conducted in accordance with Vacca, J. P. et al., Proc. Natl. Acad. Sci. USA 1994, 91: 4096. The assays tested for inhibition of wild type HIV-1 and of HIV strains containing the Y181C or K103N mutation. […] The compounds of Examples 1 to 4 had CIC95 values of less than 10 micromolar in the assay employing the K103N mutant strain. […] Table C also reports the CIC95 values of the compounds of Examples 1-7, 9-13 and 15-29 obtained in the assays employing the Y181C mutant strain and the K103N mutant strain.

Assay [2] concerns HIV strain containing the Y181C mutation. Description: Spread assay: inhibition of HIV replication (Y181C mutant strain). Format: cell-based. As to conditions: Human immunodeficiency virus 1, read-out: Spread (Y181C) CIC95. Here is the method:
as §2

The subject of assay [3] is HIV strain containing the K103N mutation. Kind of assay: Spread assay: inhibition of HIV replication (K103N mutant strain). Format: cell-based. As to conditions: Human immunodeficiency virus 1, read-out: Spread (K103N) CIC95. Here is the method: as §2
The target of assay [4] is T1, mutant HIV reverse transcriptase (K103N mutation) (Human immunodeficiency virus type 1 group M subtype B, UniProt P04585, K690N).
T1 construct: against mutant HIV reverse transcriptase; made in house
Description: ECL assay for inhibition of mutant HIV reverse transcriptase (K103N). Format: biochemical. Here is the method: as §1
(§3) Analogous assays were conducted substituting mutant HIV strains to determine the in vitro inhibition of compounds of the present invention against mutant HIV reverse transcriptase. In one strain the reverse transcriptase has the Y181C mutation and in the other strain the reverse transcriptase has the K103N mutation. The mutations were generated with the QUIKCHANGE site-directed mutagenesis kit (Stratagene).

The target of assay [5] is T2, mutant HIV reverse transcriptase (Y181C mutation) (Human immunodeficiency virus type 1 group M subtype B, UniProt P04585, Y768C).
T2 construct: against mutant HIV reverse transcriptase; made in house
Description: ECL assay for inhibition of mutant HIV reverse transcriptase (Y181C). Type of assay: biochemical. Here is the method: as §1, §3

Setting [6] is: K103N mutant RT, read-out: ECL Assay (K103N) IC50.
Where [7] appears, read: Y181C mutant RT, read-out: ECL Assay (Y181C) IC50.

Structures are written as SMILES. Where a name gives a salt, the structure may show the parent alone. Read-outs that look alike come from different tables or passages of the source. A value given as a limit tells only on which side of the number the result lay.

As usually defined, the IC50 is the concentration needed to halve the response being measured. For the compound `N#Cc1cc(Cl)cc(Oc2c(Cl)ccc3c2cnn3Cc2n[nH]c3c2ccc[n+]3[O-])c1` [Example 5, 3-chloro-5-({5-chloro-1-[(7-oxido-1H-pyrazolo[3,4-b]pyridin-3-yl)methyl]-1H-indazol-4-yl}oxy)benzonitrile], the 50% inhibitory concentration (IC50) in assay [1] is 0.62 nM; in assay [4] (setting [6]) it was 1.3 nM; in assay [5] (setting [7]) it was 1.8 nM. The IC95 with wild type HIV-1 amounted to 11 nM; in assay [2] it was 105 nM; in assay [3], 23 nM.

With `N#Cc1cc(Cl)cc(Oc2c(Cl)ccc3c2nnn3Cc2n[nH]c3nc(N)ccc23)c1` [Example 6, 3-({1-[(6-amino-1H-pyrazolo[3,4-b]pyridin-3-yl)methyl]-5-chloro-1H-1,2,3-benzotriazol-4-yl}oxy)-5-chlorobenzonitrile], the IC50 in assay [1] was 0.4 nM; in assay [4] (setting [6]), 0.53 nM; in assay [5] (setting [7]), 0.82 nM. Also, the IC95 in the assay with wild type HIV-1 is 3 nM; in assay [2], 25 nM; in assay [3] it was below 4 nM.

In the case of `N#Cc1cc(Cl)cc(Oc2c(Cl)ccc3c2ncn3Cc2n[nH]c3ncccc23)c1` [Example 7, 3-chloro-5-{[5-chloro-1-(1H-pyrazolo[3,4-b]pyridin-3-ylmethyl)-1H-benzimidazol-4-yl]oxy}benzonitrile dihydrochloride], the figures for the IC50 in assay [1], in assay [4] and in assay [5] were 0.92 nM, 4.1 nM and 1.7 nM, respectively. Moreover, the IC95 in the assay with wild type HIV-1 came out at 28 nM; in assay [2], 225 nM; in assay [3], 39 nM.

For `N#Cc1cc(Cl)cc(Oc2c(Cl)ccc3c2ncn3Cc2n[nH]c3nc(N)ccc23)c1` [Example 10, 3-({1-[(6-amino-1H-pyrazolo[3,4-b]pyridin-3-yl)methyl]-5-chloro-1H-benzimidazol-4-yl}oxy)-5-chlorobenzonitrile bis(trifluoroacetate)], the results for the IC50 in assay [1], in assay [4] and in assay [5] were 1.5 nM, 13 nM and 13 nM, respectively. For the same compound, the values for the IC95 (with wild type HIV-1; in assay [2]; in assay [3]) were 21 nM, 468 nM and 85 nM, respectively.

On to `N#Cc1cc(Cl)cc(Oc2c(Cl)ccc3c2nnn3CC(=O)Nc2ccccc2Cl)c1` [Example 12, 2-[5-chloro-4-(3-chloro-5-cyanophenoxy)-1H-1,2,3-benzotriazol-1-yl]-N-(2-chlorophenyl)acetamide], for which the results for the IC50 in assay [1], in assay [4] (setting [6]) and in assay [5] (setting [7]) were 0.45 nM, 0.94 nM and 0.89 nM, respectively. Also, the IC95 is 23 nM with wild type HIV-1, 137 nM in assay [2] and 41 nM in assay [3].

As to `N#Cc1cc(Cl)cc(Oc2c(Cl)ccc3c2nnn3CC(=O)Nc2ccncc2C(F)(F)F)c1` [Example 13, 2-[5-chloro-4-(3-chloro-5-cyanophenoxy)-1H-1,2,3-benzotriazol-1-yl]-N-[3-(trifluoromethyl)pyridin-4-yl]acetamide], the results for the half-maximal inhibitory concentration (IC50) in assay [1], in assay [4] (setting [6]) and in assay [5] (setting [7]) were 1 nM, 3 nM and 2.4 nM, respectively. Also, the values for the IC95 (in the assay on wild type HIV-1; in assay [2]; in assay [3]) were 45 nM, 382 nM and 151 nM, respectively.

Turning to `NCc1cc(Cl)cc(Oc2c(Cl)ccc3c2nnn3Cc2n[nH]c3ncccc23)c1` [Example 17, (3-chloro-5-{[5-chloro-1-(1H-pyrazolo[3,4-b]pyridin-3-ylmethyl)-1H-1,2,3-benzotriazol-4-yl]oxy}phenyl)methanaminium trifluoroacetate], the IC50 in assay [1] was 38 nM; in assay [4], 79 nM; in assay [5], 74 nM. Further, the IC95 in the assay with wild type HIV-1 is 60 nM; in assay [2] it was above 833 nM; in assay [3], 262 nM.

On to `O=Cc1cc(Cl)cc(Oc2c(Cl)ccc3c2nnn3Cc2n[nH]c3ncccc23)c1` [Example 18, 3-chloro-5-{[5-chloro-1-(1H-pyrazolo[3,4-b]pyridin-3-ylmethyl)-1H-1,2,3-benzotriazol-4-yl]oxy}benzaldehyde], for which the IC50 in assay [1] amounted to 2.1 nM; in assay [4] (setting [6]) it was 2.6 nM; in assay [5] (setting [7]), 3.7 nM. Moreover, the IC95 in the assay on wild type HIV-1 came to 55 nM; in assay [2], 825 nM; in assay [3] it was 154 nM.

For the compound `N#Cc1cc(Cl)cc(Oc2c(Cl)ccc3c2nnn3Cc2n[nH]c3ncccc23)c1Cl` [Example 19, 2,5-dichloro-3-{[5-chloro-1-(1H-pyrazolo[3,4-b]pyridin-3-ylmethyl)-1H-1,2,3-benzotriazol-4-yl]oxy}benzonitrile], the values for the IC50 in assay [1], in assay [4] (setting [6]) and in assay [5] (setting [7]) were 0.57 nM, 0.93 nM and 0.77 nM, respectively. Further, the results for the IC95 (with wild type HIV-1; in assay [2]; in assay [3]) were 7 nM, 27 nM and 15 nM, respectively.

Values taken from patent publication US7781454B2 (priority 2006, dated 2010).
